Here are results for 17 compounds from PubChem BioAssay (NCI).

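Cells were grown in 96-well plates and exposed to each compound for 48 hours at five concentrations; endpoints were interpolated linearly between bracketing concentrations, or set to the highest concentration if not reached. GI50 marks 50% less growth. TGI denotes the concentration required for complete inhibition of growth.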

Common to all, as to assay: inhibition of tumour cell growth, NCI panel, 48 h
Test [1] has as its system MDA-MB-231 breast.
Test [2] deals with NCI-H226 lung.
Test [3] deals with BT-549 breast.
Test [4] concerns SNB-19 CNS.
In test [5] the test system is SNB-75 CNS.
For test [6], the system named is SN12C renal.
Test [7] has as its system COLO 205 colon.
Test [8] deals with SK-OV-3 ovarian.
Test [9] deals with U251 CNS.
For test [10], the system named is NCI-H522 lung.
The subject of test [11] is NCI-H460 lung.
Test [12] relates to HCT-116 colon.
For test [13], the system named is MDA-MB-435.
Test [14] concerns HCT-15 colon.
Test [15] deals with OVCAR-8 ovarian.
The subject of test [16] is UO-31 renal.
In test [17] the test system is SK-MEL-2 melanoma.

Regarding `NS(=O)(=O)c1ccc(N=Nc2ccc(O)c(C(=O)O)c2)cc1`, the TGI in test [1], in test [2], in test [3], in test [4], in test [5] and in [6] was greater than 100 µM throughout. In addition, the TGI in test [7], in test [8], in test [9], in test [10], in test [11] and in test [12] was greater than 100 µM throughout. The TGI in test [13], in [14], in [15], in test [16] and in [17] was greater than 100 µM throughout.

As to `CCOC(=O)/C=C/[C@@H](CC)O[Si](C(C)C)(C(C)C)C(C)C`, the TGI in [1], in test [2], in [3], in [4], in test [5] and in test [7] was greater than 100 µM throughout. Besides, the TGI in test [8], in test [9], in [10], in test [11], in [12] and in test [13] was greater than 100 µM each time. Further, the TGI in [14], in test [15], in test [16] and in test [17] was greater than 100 µM throughout.

With `CSCCCNC(=O)[C@H](CSC)NC(=O)c1csc(CCNC(=O)[C@@H](NSc2ccccc2[N+](=O)[O-])C(C)O)n1` (stereo not given in full), the TGI in test [1], in test [2], in [3], in test [4], in test [5] and in [6] was greater than 100 µM in each case. The TGI in test [7], in [8], in [9], in test [10], in test [11] and in test [12] was greater than 100 µM in each case. For the same compound, the TGI in test [13], in [14], in [15], in [16] and in [17] was greater than 100 µM in each case.

Turning to `FC(F)(F)c1ccc2nc(Sc3ccc4ccccc4c3)cnc2c1`, the TGI in test [1], in [2], in [3], in [4], in [5] and in test [6] was greater than 100 µM each time. Further, the TGI in test [7], in [8], in test [9], in test [10], in test [11] and in [12] was greater than 100 µM each time. Also, the TGI in [13] is greater than 100 µM; in test [14] it was greater than 100 µM; in [15] it was greater than 100 µM; in test [16] it was greater than 100 µM; in test [17] it was 66.3 µM.

Consider `COc1ccc(CNc2nc3ccccc3nc2C(=O)O)cc1`, for which the TGI in test [1], in [2], in test [3], in test [4], in test [5] and in test [6] was greater than 100 µM each time. Also, the TGI in test [7], in [9], in [10], in test [11], in test [12] and in test [13] was greater than 100 µM each time. Moreover, the TGI in test [14] was 60.9 µM; in test [15], greater than 100 µM; in test [16], greater than 100 µM; in test [17], greater than 100 µM.

With `COCCN1C(=O)C2c3[nH]c4ccccc4c3C3CCC(C(C)(C)C)CC3C2C1=O` (stereo not given), the TGI was determined as 36.9 µM in test [1]; 39 µM in [2]; 35.3 µM in test [3]; 44.6 µM in [4]; 35.6 µM in test [5]; 32.9 µM in [6]. Besides, the TGI is 33.7 µM in [7]; 42.7 µM in test [8]; 28.9 µM in test [9]; 35.7 µM in test [10]; 28 µM in test [11]; 29.9 µM in test [12]. Further, the TGI in [13] amounted to 36.9 µM; in test [14], 36.3 µM; in test [15] it was 46 µM; in test [16], 27.2 µM.

`CN1CCN([C@H]2C[C@H]3[C@@H]4CC=C5C[C@@H](O)CC[C@]5(C)[C@H]4CC[C@]3(C)[C@H]2O)CC1`: the TGI in test [1] was greater than 64.7 µM; in [2], greater than 100 µM; in [3], greater than 100 µM; in test [4] it was greater than 62 µM; in test [5] it was 97.4 µM; in test [6], greater than 100 µM. For the same compound, the TGI in [7] was greater than 100 µM; in test [8], greater than 100 µM; in [9], 32.8 µM; in test [10], greater than 100 µM; in test [11], greater than 59.2 µM; in [12], greater than 80.6 µM. Moreover, the TGI in [13] was 31 µM; in test [14] it was greater than 59.2 µM; in test [15], greater than 57.1 µM; in test [16], greater than 100 µM; in test [17], greater than 100 µM.

In the case of `c1cc2c(cc1C1=NCCN1)c1cc(C3=NCCN3)ccc1n2CC1CCCCC1`, the TGI is greater than 100 µM in test [1]; 48.7 µM in test [2]; 41.9 µM in [3]; 46.3 µM in test [4]; 30.6 µM in test [5]; 80.1 µM in [6]. Further, the TGI in test [7] came out at 20.4 µM; in [8] it was 81.8 µM; in test [9], 22.9 µM; in [10], 21.6 µM; in test [11] it was 34.5 µM; in test [12], 51.1 µM. Moreover, the TGI in test [13] is 50.3 µM; in test [14], greater than 100 µM; in test [15] it was greater than 100 µM; in test [16] it was greater than 100 µM; in test [17], 34.6 µM.

Consider `O=c1[nH]c2ccc([N+](=O)[O-])cc2nc1/C=C(\O)c1ccccc1`, for which the TGI in test [1] is 15.3 µM; in [2] it was greater than 100 µM; in test [3] it was greater than 100 µM; in test [4] it was 31.8 µM; in test [5], 58.3 µM; in [6], 59.5 µM. For the same compound, the TGI in test [7] was greater than 100 µM; in test [8], 33.7 µM; in test [9], 30.3 µM; in test [10], 34.6 µM; in [11], 16.5 µM; in [12], greater than 100 µM. For the same compound, the TGI in test [13] was greater than 100 µM; in test [14], greater than 100 µM; in [15], 49.4 µM; in [16] it was greater than 100 µM; in test [17] it was greater than 100 µM.

In the case of `CCOC(=O)CCC(NC(=O)c1ccc(Nc2nc3ccccc3nc2C(=O)OCC)cc1)C(=O)OCC` (stereo not given), the TGI is greater than 23.8 µM in [1]; 12.2 µM in test [2]; 25.7 µM in test [3]; 14 µM in [4]; 6.16 µM in test [5]; greater than 40.7 µM in [6]. Moreover, the TGI in test [7] is greater than 100 µM; in test [8], 8.01 µM; in [9], 9.66 µM; in test [10], 16.7 µM; in test [11], greater than 100 µM; in [12] it was 8.6 µM. Further, the TGI in test [13] is greater than 100 µM; in [14], greater than 100 µM; in [15], 7.97 µM; in test [16] it was 12.2 µM; in [17] it was 24.4 µM.

On to `Cc1ccc(S(=O)(=O)Nn2c(O)c(C#N)c(-c3ccc([N+](=O)[O-])cc3)c(C#N)c2=O)cc1`, for which the TGI in test [1], in [2], in test [3], in [4], in [5] and in test [6] was greater than 100 µM in each case. Also, the TGI in test [7], in test [8], in [9], in test [10], in [11] and in test [12] was greater than 100 µM each time. Moreover, the TGI in [13], in [14], in [15] and in [17] was greater than 100 µM each time.

As for `O=C1C=C(N2CCN(CCOCCO)CC2)C(=O)c2c(O)ccc(O)c21`, the TGI in test [1] was 21.8 µM; in test [2], 35.5 µM; in test [3] it was 25.5 µM; in test [4] it was 33.7 µM; in [5] it was 30.6 µM; in test [6] it was 14.8 µM. In addition, the TGI was 2.86 µM in test [7]; 38.8 µM in test [8]; 15.9 µM in [9]; 5.75 µM in test [10]; 21.4 µM in test [11]; 7.44 µM in [12]. Moreover, the TGI in test [13] came to 3.33 µM; in test [14] it was 9.55 µM; in test [15] it was 17.9 µM; in [16], 22.6 µM; in test [17] it was 18.5 µM.

In the case of `CCOc1cc2c(cc1O)C(N)C[C@@H]1[C@@H]2CC[C@]2(C)[C@@H](O)CC[C@@H]12` (stereo not given in full), the TGI in test [1] is greater than 100 µM; in test [2], greater than 100 µM; in [3], greater than 100 µM; in [4] it was greater than 100 µM; in test [5], 95.4 µM; in test [6], greater than 100 µM. Also, the TGI in test [7] was greater than 100 µM; in [9] it was greater than 100 µM; in test [10], greater than 100 µM; in test [11], greater than 100 µM; in test [12], greater than 100 µM; in test [13], 52.4 µM. Also, the TGI in [14], in [15], in test [16] and in test [17] was greater than 100 µM throughout. In addition, the values for the GI50 in test [6], in test [12] and in test [13] were 58.6 µM, 39.7 µM and 16.2 µM, respectively.

`O=C1CC(c2ccccc2)S(=O)c2ccccc2N1` (stereo not given): the TGI in test [1], in test [2], in test [3], in test [4], in [5] and in test [6] was greater than 100 µM in each case. Moreover, the TGI in [7], in test [8], in [9], in test [10], in test [11] and in test [12] was greater than 100 µM in each case. For the same compound, the TGI in test [13], in test [14], in test [15] and in test [16] was greater than 100 µM in each case.

`CCOC(=O)Cn1c(=O)c(C)cn(COCCO)c1=O`: the TGI in [1], in [2], in test [3], in test [4], in [5] and in test [6] was greater than 100 µM in each case. For the same compound, the TGI in test [7], in [9], in test [10], in test [11], in test [13] and in test [15] was greater than 100 µM in each case. In addition, the TGI in test [16] and in test [17] was greater than 100 µM each time.

Consider `O=c1cc(N2CCCC2)[nH]c(=O)n1-c1ccc(Cl)cc1`, for which the TGI in [1], in test [2], in [3], in test [4], in test [5] and in test [6] was greater than 100 µM throughout. The TGI in test [7], in test [8], in test [9], in test [10], in test [11] and in [12] was greater than 100 µM throughout. For the same compound, the TGI in test [13], in [14], in [15] and in [17] was greater than 100 µM throughout.

Consider `Clc1cc2nnn(C3CCCO3)c2cc1Cl` (stereo not given), for which the TGI in test [1], in test [2], in test [3], in test [5], in [6] and in [7] was greater than 100 µM throughout. For the same compound, the TGI in test [8], in test [9], in test [10], in test [11], in test [12] and in [13] was greater than 100 µM in each case. The TGI in test [14], in [15] and in test [17] was greater than 100 µM throughout.
